Molecules are shown by their SMILES.

What all share (format): binding
Test [1] deals with T1, C5AR2 (Homo sapiens, UniProt Q9P296).
T1 construct: purchased Promega (in-house HiBiT-GPCR construct library, NanoBRET)
The experiment in a line: NanoBRET screen HiBiT-C5AR2 in HEK293. On the procedure: (§1) Each tracer candidate was screened across the entire library of HiBiT-GPCR constructs using NanoBRET as the detection modality. As depicted in Figure 4A, the specificity of interactions was evaluated through decrease in BRET due to competitive displacement of a bound tracer by excess parental compound. Each tracer was analyzed for binding to each HiBiT-GPCR fusion in the absence and in the presence of competing parental compound. Briefly, HEK293 cells were transfected with HiBiT-GPCR constructs diluted into promoterless DNA to reduce expression and maximize translocation to the cell surface. Each tracer candidate was then screened at concentrations of 1 μM and 0.1 μM across cells expressing these fusions. Cells were treated for 1.5 h with tracer either alone or in the presence of 20 μM competing parental compound (i.e., control). BRET was measured upon addition of purified LgBiT and subsequent complementation with HiBiT genetically fused to a GPCR. The specificity of interactions was assessed through a decrease in BRET signal due to competitive displacement of the bound tracer. To further gauge the robustness of these interactions, the fold response over the control (i.e., BRETtracer/BRETcontrol) was calculated. We chose a 1.5-fold response, which translates to ≥7-fold signal over noise as the minimal threshold required to score an interaction as positive. […]. Below we highlight the screening results obtained for our exemplary fluorescent tracers based on Clozapine, Amitriptyline and AZD1283.
(§2) HiBiT-GPCR DNA constructs were diluted in 10 mM Tris pH 8 to a final concentration of 0.01 μg/μL, arrayed in 96-well plates and stored at −20 °C. For transfection, HEK293 cells were suspended in Opti-MEM (without phenol red) supplemented with 2% fetal bovine serum (Seradigm) and 100 units/mL penicillin–streptomycin (Gibco) at a final concentration of 220,000 cells/mL and dispensed into white 96-well plates at 90 μL/well. Subsequent transfections and screens were carried using an Agilent Bravo Automated Liquid Handling Platform. First, the 96-well HiBiT DNA arrays were diluted 25-fold in Opti-MEM (without serum or phenol red) to a final concentration of 0.0004 μg/μL and 20 μL of the diluted DNAs were transferred into new 96-well plates. Next, promoterless carrier DNA (1 μg/μL) was diluted 25-fold (0.04 μg/μL) and then dispensed into the diluted arrays at 20 μL/well. Following brief mixing, Viafect transfection reagent (Promega) diluted 16-fold into Opti-MEM was dispensed into the plates at 40 μL/well. After mixing by pipetting, plates were incubated for 10 min on the pipetting station deck. The DNA-transfection reagent complexes were then added to plates containing cells. To facilitate the screen, 10 μL of DNA-transfection reagent complexes were added in duplicates to the top 4 and bottom 4 rows, resulting in two identical 48-well arrays per plate. Plates with transfected cells were incubated for 18–20 h at 37 °C/5% CO2. A screen of each tracer across the entire library using two different concentrations requires duplicate plates of transfected cells. Depending on the number of tracers being screened, transfections can be scaled up using the same ratios. The next day, for each tracer, four 20× screening solutions in tracer dilution buffer (Promega) were prepared: two duplicates at final concentration of 20 μM and two duplicates at a final concentration of 2 μM. A competing unmodified compound was added to one of each duplicate at a final concentration of 400 μM. The four resulting solutions were diluted 4-fold in Opti-MEM without serum or phenol red to generate 5× solutions (5 µM and 0.5 µM tracer +/− 100 μM competing compound). To screen the library, a BioTek MultiFlo FX liquid dispenser was used to dispense 22.5 µL of tracer solution to the top 4 rows and 22.5 µL tracer + competing compound solution to the 4 bottom rows. Plates were briefly mixed on an orbital shaker and incubated for 1.5 h at room temperature. […]

The target in test [2] is T2, CXCR2 (Homo sapiens, UniProt P25025).
T2 construct: purchased Promega (in-house HiBiT-GPCR construct library, NanoBRET)
T2 sequence (P25025 1-360): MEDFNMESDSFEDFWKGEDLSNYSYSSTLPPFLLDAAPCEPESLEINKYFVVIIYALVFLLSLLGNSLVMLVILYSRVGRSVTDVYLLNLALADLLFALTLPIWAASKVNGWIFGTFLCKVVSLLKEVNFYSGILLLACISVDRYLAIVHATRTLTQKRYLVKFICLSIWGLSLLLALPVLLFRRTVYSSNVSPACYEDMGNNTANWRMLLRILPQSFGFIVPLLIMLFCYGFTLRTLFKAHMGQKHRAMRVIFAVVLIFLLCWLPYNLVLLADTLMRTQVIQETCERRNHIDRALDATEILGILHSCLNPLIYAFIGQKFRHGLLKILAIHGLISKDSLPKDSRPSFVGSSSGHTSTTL
The experiment in a line: NanoBRET screen HiBiT-CXCR2 in HEK293. The method, then: as §1, §2

Test [3] concerns the target T3, SMO (Homo sapiens, UniProt Q99835).
T3 construct: purchased Promega (in-house HiBiT-GPCR construct library, NanoBRET)
Briefly: NanoBRET screen HiBiT-SMO in HEK293. On the procedure:
as §1, §2
Background: Bioluminescence resonance energy transfer reports proximity on the nanometre scale.

For test [4], the target named is T4, CXCR1 (Homo sapiens, UniProt P25024).
T4 construct: purchased Promega (in-house HiBiT-GPCR construct library, NanoBRET)
T4 sequence (P25024 1-350): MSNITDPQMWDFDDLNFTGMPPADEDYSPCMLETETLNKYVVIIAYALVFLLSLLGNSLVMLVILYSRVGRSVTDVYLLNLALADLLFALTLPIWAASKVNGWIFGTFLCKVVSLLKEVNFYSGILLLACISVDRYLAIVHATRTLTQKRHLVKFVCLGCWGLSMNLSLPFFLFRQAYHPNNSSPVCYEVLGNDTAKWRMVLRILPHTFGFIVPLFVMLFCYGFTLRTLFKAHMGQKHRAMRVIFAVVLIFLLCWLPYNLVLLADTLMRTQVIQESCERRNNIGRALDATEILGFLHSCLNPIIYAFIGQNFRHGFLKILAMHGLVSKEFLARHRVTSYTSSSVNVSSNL
Briefly: NanoBRET screen HiBiT-CXCR1 in HEK293. The method, then:
as §1, §2

The target of test [5] is T5, GABBR1 (Homo sapiens, UniProt Q9UBS5).
T5 construct: purchased Promega (in-house HiBiT-GPCR construct library, NanoBRET)
T5 sequence (Q9UBS5 15-961 limits assumed): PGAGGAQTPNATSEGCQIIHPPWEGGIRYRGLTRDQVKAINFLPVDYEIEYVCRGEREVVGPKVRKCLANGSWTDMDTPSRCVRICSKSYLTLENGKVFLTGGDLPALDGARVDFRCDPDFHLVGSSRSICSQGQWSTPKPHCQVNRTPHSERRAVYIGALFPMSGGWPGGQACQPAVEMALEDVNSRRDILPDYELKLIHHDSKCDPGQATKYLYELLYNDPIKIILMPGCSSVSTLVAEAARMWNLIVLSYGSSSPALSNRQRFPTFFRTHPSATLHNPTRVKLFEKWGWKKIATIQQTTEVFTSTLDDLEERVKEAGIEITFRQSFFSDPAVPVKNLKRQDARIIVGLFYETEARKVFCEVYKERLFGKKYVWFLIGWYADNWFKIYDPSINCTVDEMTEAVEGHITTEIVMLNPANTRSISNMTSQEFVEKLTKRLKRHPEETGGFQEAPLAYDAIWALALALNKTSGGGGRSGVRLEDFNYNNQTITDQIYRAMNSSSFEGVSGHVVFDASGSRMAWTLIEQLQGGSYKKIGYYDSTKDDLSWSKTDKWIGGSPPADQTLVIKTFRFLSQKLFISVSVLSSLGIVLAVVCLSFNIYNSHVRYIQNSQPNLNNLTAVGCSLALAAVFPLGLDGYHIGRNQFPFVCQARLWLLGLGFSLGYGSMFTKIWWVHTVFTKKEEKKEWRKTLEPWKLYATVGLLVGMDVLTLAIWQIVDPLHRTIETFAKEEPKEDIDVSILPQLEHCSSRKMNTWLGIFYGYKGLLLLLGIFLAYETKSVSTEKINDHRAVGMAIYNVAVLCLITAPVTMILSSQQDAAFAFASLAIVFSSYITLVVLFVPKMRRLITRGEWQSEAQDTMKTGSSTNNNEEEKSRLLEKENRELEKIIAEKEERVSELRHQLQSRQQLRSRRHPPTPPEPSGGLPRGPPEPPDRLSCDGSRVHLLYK
The experiment in a line: NanoBRET screen HiBiT-GABBR1 in HEK293. The method, then: as §1, §2

In test [6] the target is T6, CXCR6 (Homo sapiens, UniProt O00574).
T6 construct: purchased Promega (in-house HiBiT-GPCR construct library, NanoBRET)
T6 sequence (O00574 whole entry): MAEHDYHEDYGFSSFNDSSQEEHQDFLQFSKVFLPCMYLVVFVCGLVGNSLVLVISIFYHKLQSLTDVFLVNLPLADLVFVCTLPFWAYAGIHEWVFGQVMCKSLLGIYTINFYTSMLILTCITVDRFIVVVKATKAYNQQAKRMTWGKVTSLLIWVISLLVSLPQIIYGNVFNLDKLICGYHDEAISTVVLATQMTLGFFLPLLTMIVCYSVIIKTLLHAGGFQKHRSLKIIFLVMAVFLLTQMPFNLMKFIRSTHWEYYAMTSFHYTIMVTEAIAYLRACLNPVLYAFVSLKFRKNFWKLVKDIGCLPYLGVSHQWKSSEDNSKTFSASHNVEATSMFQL
The experiment in a line: NanoBRET screen HiBiT-CXCR6 in HEK293. The method, then:
as §1, §2

The mark [7] stands for this setting: tracer at 0.1μM, listed as amitriptyline-b-2-NB590.
Where [8] appears, read: tracer at 1μM, listed as amitriptyline-b-2-NB590.

T3 sequence (Q99835 28-787): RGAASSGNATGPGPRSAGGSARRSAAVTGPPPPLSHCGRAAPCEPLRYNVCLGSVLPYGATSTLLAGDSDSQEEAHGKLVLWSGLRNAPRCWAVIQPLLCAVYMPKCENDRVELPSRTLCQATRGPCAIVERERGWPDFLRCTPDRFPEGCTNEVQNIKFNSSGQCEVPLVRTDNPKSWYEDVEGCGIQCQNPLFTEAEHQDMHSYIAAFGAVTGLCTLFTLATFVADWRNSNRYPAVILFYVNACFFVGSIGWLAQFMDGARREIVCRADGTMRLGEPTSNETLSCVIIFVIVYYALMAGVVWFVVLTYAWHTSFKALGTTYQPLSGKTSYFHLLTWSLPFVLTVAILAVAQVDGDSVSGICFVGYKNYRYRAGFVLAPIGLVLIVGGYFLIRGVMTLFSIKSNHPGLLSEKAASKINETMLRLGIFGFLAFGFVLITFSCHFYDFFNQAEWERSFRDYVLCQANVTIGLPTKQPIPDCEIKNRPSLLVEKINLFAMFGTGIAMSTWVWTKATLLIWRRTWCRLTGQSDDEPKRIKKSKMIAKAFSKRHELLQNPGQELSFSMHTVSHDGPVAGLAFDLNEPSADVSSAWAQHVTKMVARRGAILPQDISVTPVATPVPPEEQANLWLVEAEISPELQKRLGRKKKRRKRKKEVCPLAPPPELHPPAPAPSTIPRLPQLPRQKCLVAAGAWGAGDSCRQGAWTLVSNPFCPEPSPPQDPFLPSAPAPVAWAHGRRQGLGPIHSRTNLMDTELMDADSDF
T1 sequence (Q9P296 whole entry): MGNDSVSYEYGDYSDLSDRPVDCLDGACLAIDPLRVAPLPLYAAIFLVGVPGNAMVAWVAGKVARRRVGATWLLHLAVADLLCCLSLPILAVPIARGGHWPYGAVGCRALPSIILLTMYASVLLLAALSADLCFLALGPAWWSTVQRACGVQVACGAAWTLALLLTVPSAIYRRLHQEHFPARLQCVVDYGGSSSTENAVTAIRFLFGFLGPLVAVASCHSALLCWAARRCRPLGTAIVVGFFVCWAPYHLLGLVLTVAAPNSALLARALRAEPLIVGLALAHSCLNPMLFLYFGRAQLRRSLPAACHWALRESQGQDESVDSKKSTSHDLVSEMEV

For `O=C(CCc1ccc2n1[B-](F)(F)[N+]1=C(c3ccc[nH]3)C=CC1=C2)NCc1ccc(C(=O)NCCOCCC(=O)N[C@@H]2CC[C@@]3(O)[C@H]4Cc5ccc(O)c6c5[C@@]3(CCN4CC3CC3)[C@H]2O6)cc1` [Naltrexone-3-NB590], the “NanoBRET Fold Response” value in test [1] (C5AR2, tracer 0.1μM) is on record as 0.95; in test [1] (C5AR2, tracer 1μM), 1.01; in test [2] (CXCR2, tracer 0.1μM), 0.81; in test [2] (CXCR2, tracer 1μM) it was 0.78; in test [3] (SMO, tracer 0.1μM), 0.58; in test [3] (SMO, tracer 1μM), 0.55. Besides, the “NanoBRET Fold Response” value in test [4] (CXCR1, tracer 0.1μM) is 0.95; in test [4] (CXCR1, tracer 1μM), 0.75; in test [5] (GABBR1, tracer 0.1μM), 0.93; in test [5] (GABBR1, tracer 1μM), 0.49; in test [6] (CXCR6, tracer 0.1μM), 1.02; in test [6] (CXCR6, tracer 1μM), 0.91.
For the molecule `CN1CCN(C2=Nc3cc(Cl)ccc3N(CC(=O)NCCOCCOCCOCCOCCNC(=O)CCc3ccc4n3[B-](F)(F)[N+]3=C(c5ccc[nH]5)C=CC3=C4)c3ccccc32)CC1` [Clozapine-c-2-NB590], the “NanoBRET Fold Response” value worked out at 0.99 in test [1] (C5AR2, 0.1μM tracer); 1.00 in test [1] (C5AR2, 1μM tracer); 1.03 in test [2] (CXCR2, 0.1μM tracer); 0.92 in test [2] (CXCR2, 1μM tracer); 0.97 in test [3] (SMO, 0.1μM tracer); 1.09 in test [3] (SMO, 1μM tracer). In addition, the “NanoBRET Fold Response” value is 0.99 in test [4] (CXCR1, 0.1μM tracer); 0.94 in test [4] (CXCR1, 1μM tracer); 0.97 in test [5] (GABBR1, 0.1μM tracer); 0.89 in test [5] (GABBR1, 1μM tracer); 1.01 in test [6] (CXCR6, 0.1μM tracer); 1.04 in test [6] (CXCR6, 1μM tracer).
For the molecule `O=C(CCOCCOCCOCCOCCNC(=O)CCc1ccc2n1[B-](F)(F)[N+]1=C(c3ccc[nH]3)C=CC1=C2)NCCCN1CCN(C2=Nc3cc(Cl)ccc3Nc3ccccc32)CC1` [Clozapine-a-2-NB590], the “NanoBRET Fold Response” value in test [1] (C5AR2, 0.1μM tracer) worked out at 0.93; in test [1] (C5AR2, 1μM tracer), 1.21; in test [2] (CXCR2, 0.1μM tracer), 1.02; in test [2] (CXCR2, 1μM tracer), 0.87; in test [3] (SMO, 0.1μM tracer), 1.00; in test [3] (SMO, 1μM tracer), 0.64. For the same molecule, the “NanoBRET Fold Response” value in test [4] (CXCR1, 0.1μM tracer) is 0.99; in test [4] (CXCR1, 1μM tracer), 0.94; in test [5] (GABBR1, 0.1μM tracer) it was 0.96; in test [5] (GABBR1, 1μM tracer) it was 1.33; in test [6] (CXCR6, 0.1μM tracer) it was 0.98; in test [6] (CXCR6, 1μM tracer), 1.08.
`CCOC(=O)c1cc(C#N)c(N2CCC(C(=O)NS(=O)(=O)Cc3ccccc3/C=C/C(=O)NCCNC(=O)CCc3ccc4n3[B-](F)(F)[N+]3=C(c5ccc[nH]5)C=CC3=C4)CC2)nc1C` [AZD1283-1-NB590]: the “NanoBRET Fold Response” value came out at 0.97 in test [1] (C5AR2, 0.1μM); 1.12 in test [1] (C5AR2, 1μM); 0.99 in test [2] (CXCR2, 0.1μM); 1.03 in test [2] (CXCR2, 1μM); 1.05 in test [3] (SMO, 0.1μM); 1.13 in test [3] (SMO, 1μM). Besides, the “NanoBRET Fold Response” value in test [4] (CXCR1, 0.1μM) was 1.09; in test [4] (CXCR1, 1μM), 1.13; in test [5] (GABBR1, 0.1μM) it was 1.05; in test [5] (GABBR1, 1μM), 1.13; in test [6] (CXCR6, 0.1μM) it was 0.89; in test [6] (CXCR6, 1μM) it was 0.29.
In the case of `CN(CCC=C1c2ccccc2CCc2ccccc21)C(=O)CCOCCOCCOCCOCCNC(=O)CCc1ccc2n1[B-](F)(F)[N+]1=C(c3ccc[nH]3)C=CC1=C2` [Amitriptyline-e-2-NB590], the “NanoBRET Fold Response” value in test [1] (tracer at 1μM) was found to be 1.01; in test [2] (tracer at 1μM), 1.07; in test [4] (tracer at 1μM) it was 0.93; in test [5] (tracer at 1μM) it was 1.09; in test [6] (tracer at 1μM), 0.98.
In the case of `CN(C)CCC=C1c2ccccc2CCc2ccc(C(=O)NCCNC(=O)CCOCCOCCOCCOCCNC(=O)CCc3ccc4n3[B-](F)(F)[N+]3=C(c5ccc[nH]5)C=CC3=C4)cc21` [Amitriptyline-a-2-NB590], the “NanoBRET Fold Response” value in test [1] (tracer at 0.1μM) came out at 1.11; in test [1] (tracer at 1μM), 1.01; in test [2] (tracer at 0.1μM), 0.99; in test [2] (tracer at 1μM), 1.00; in test [4] (tracer at 0.1μM) it was 1.05; in test [4] (tracer at 1μM) it was 0.97. Also, the “NanoBRET Fold Response” value in test [5] (tracer at 0.1μM) was 0.93; in test [5] (tracer at 1μM) it was 0.91; in test [6] (tracer at 0.1μM), 1.07; in test [6] (tracer at 1μM), 0.94.
Consider `CN(C)CCC=C1c2ccccc2CCc2ccc(C(=O)NCCNC(=O)CCOCCOCCOCCOCCNC(=O)CCc3ccc4n3[B-](F)(F)[N+]3=C(c5ccc[nH]5)C=CC3=C4)cc21` [Amitriptyline-b-2-NB590], for which the “NanoBRET Fold Response” value in test [2] (setting [7]) was 0.97; in test [2] (setting [8]) it was 0.83; in test [3] (tracer at 1μM) it was 0.97; in test [4] (tracer at 0.1μM), 0.97; in test [4] (setting [8]), 1.11; in test [5] (setting [7]), 1.11. Further, the “NanoBRET Fold Response” value came out at 0.85 in test [5] (setting [8]), 0.95 in test [6] (setting [7]) and 1.02 in test [6] (setting [8]).
